# Measured values from US10604512B2, “3-(1H-indol-2-yl)-1H-indazoles and therapeutic uses thereof” (Samumed, LLC, priority 2015, dated 2020).
# pEC50: −log10 of the molar value.
# How the values were obtained:
# [1] = tested on: Wnt activity (Sp5-Luc reporter, TCF/LEF binding sites) in SW480 colon carcinoma cells; experiment: Screening assay for Wnt activity: Sp5-Luc reporter gene assay in stably transduced SW480 colon carcinoma cells; assay type: cell-based; conditions: Homo sapiens; for pEC50: overnight incubation, 10-point curve from 10 μM; for inhibition at 10 µM: given where EC50 >10 μM, read-out: percent inhibition at 10 μM
# Procedure, shortened: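 SW480 cells stably transduced with a luciferase reporter driven by an Sp5 promoter of eight TCF/LEF sites were plated at 4,000 cells/well in 1% FBS medium. They were exposed overnight at 37° C to a 10-point 1:3 dilution series from 10 μM (0.1% DMSO). Luminescence was normalized to DMSO for four-parameter EC50, or percent inhibition at 10 μM.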
# [2] = tested on: Primary human fibroblasts derived from IPF patients (LL29 cells) treated with TGF-β1; experiment: Inhibition of the fibrotic process: αSMA staining in TGF-β1-treated primary human fibroblasts from IPF patients (LL29 cells); assay type: cell-based; conditions: Fibroblast, 96 h; for pEC50: % αSMA-positive LL29 cells, TGF-β1 20 ng/mL, 4 days; for inhibition at 10 µM: given where EC50 >10 μM, αSMA, LL29 cells, TGF-β1, 4 days, read-out: percent inhibition at 10 μM
# Procedure, shortened: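 LL29 IPF-patient fibroblasts in 1% FBS stimulated with TGF-β1 (20 ng/mL) and compound (10 μM–1.87 nM, 0.1% DMSO) for 4 days at 37 °C. SYTOX-positive cells excluded; % αSMA-positive cells imaged, normalized to TGF-β1/DMSO wells; EC50 by nonlinear regression, else % inhibition at 10 μM.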
SMILES,pEC50 [1],pEC50 [2],inhibition at 10 µM [2] [%],inhibition at 10 µM [1] [%]
"c1ccc2[nH]c(-c3n[nH]c4ccc(-c5cncc(CN6CCCC6)c5)cc34)cc2c1 [Compound 266, 3-(1H-Indol-2-yl)-5-(5-(pyrrolidin-1-ylmethyl)pyridin-3-yl)-1H-indazole]",6.44,6.25,–,–
"c1ccc2[nH]c(-c3n[nH]c4ccc(-c5cncc(CN6CCCCC6)c5)cc34)cc2c1 [Compound 267, 3-(1H-Indol-2-yl)-5-(5-(piperidin-1-ylmethyl)pyridin-3-yl)-1H-indazole]",6.17,< 5.00,49.9,–
"CC(C)(C)CC(=O)Nc1cncc(-c2ccc3[nH]nc(-c4cc5ccccc5[nH]4)c3c2)c1 [Compound 268, N-(5-(3-(1H-Indol-2-yl)-1H-indazol-5-yl)pyridin-3-yl)-3,3-dimethylbutanamide]",6.73,5.16,–,–
"O=C(Nc1cncc(-c2ccc3[nH]nc(-c4cc5ccccc5[nH]4)c3c2)c1)C1CCC1 [Compound 273, N-(5-(3-(1H-Indol-2-yl)-1H-indazol-5-yl)pyridin-3-yl) cyclobutanecarboxamide]",6.16,< 5.00,3.5,–
"O=C(Nc1cncc(-c2ccc3[nH]nc(-c4cc5ccccc5[nH]4)c3c2)c1)C1CCCCC1 [Compound 275, N-(5-(3-(1H-Indol-2-yl)-1H-indazol-5-yl)pyridin-3-yl) cyclohexanecarboxamide]",6.23,< 5.00,43.7,–
"CC(C)CC(=O)Nc1cncc(-c2ccc3[nH]nc(-c4cc5c(-c6ccsc6)cccc5[nH]4)c3c2)c1 [Compound 282, 3-Methyl-N-(5-(3-(4-(thiophen-3-yl)-1H-indol-2-yl)-1H-indazol-5-yl)pyridin-3-yl)butanamide]",7.12,< 5.00,34.9,–
"CC(C)C(=O)Nc1cncc(-c2ccc3[nH]nc(-c4cc5c(-c6ccsc6)cccc5[nH]4)c3c2)c1 [Compound 289, N-(5-(3-(4-(Thiophen-3-yl)-1H-indol-2-yl)-1H-indazol-5-yl)pyridin-3-yl) isobutyramide]",6.92,5.08,–,–
"c1ccc(-c2ccc3[nH]nc(-c4cc5c(-c6ccoc6)cccc5[nH]4)c3c2)nc1 [Compound 336, 3-(4-(Furan-3-yl)-1H-indol-2-yl)-5-(pyridin-2-yl)-1H-indazole]",5.41,< 5.00,0,–
"c1cncc(-c2ccc3[nH]nc(-c4cc5c(-c6cccs6)cccc5[nH]4)c3c2)c1 [Compound 340, 5-(Pyridin-3-yl)-3-(4-(thiophen-2-yl)-1H-indol-2-yl)-1H-indazole]",7.13,< 5.00,38.3,–
"CN(C)Cc1cncc(-c2ccc3[nH]nc(-c4cc5c(-c6cccs6)cccc5[nH]4)c3c2)c1 [Compound 349, N,N-Dimethyl-1-(5-(3-(4-(thiophen-2-yl)-1H-indol-2-yl)-1H-indazol-5-yl)pyridin-3-yl)methanamine]",6.77,5.94,–,–
"c1csc(-c2cccc3[nH]c(-c4n[nH]c5ccc(-c6ccncc6)cc45)cc23)c1 [Compound 354, 5-(pyridin-4-yl)-3-(4-(thiophen-2-yl)-1H-indol-2-yl)-1H-indazole]",5.31,< 5.00,0,–
"CC(C)(C)C(=O)Nc1cncc(-c2ccc3[nH]nc(-c4cc5c(-c6cc(F)cc(CNS(C)(=O)=O)c6)cccc5[nH]4)c3c2)c1 [Compound 484, N-(5-(3-(4-(3-Fluoro-5-(methylsulfonamidomethyl)phenyl)-1H-indol-2-yl)-1H-indazol-5-yl)pyridin-3-yl)pivalamide]",6.94,< 5.00,25.5,–
"CS(=O)(=O)NCc1cc(F)cc(-c2cccc3[nH]c(-c4n[nH]c5ccc(-c6ccncc6)cc45)cc23)c1 [Compound 494, N-(3-Fluoro-5-(2-(5-(pyridin-4-yl)-1H-indazol-3-yl)-1H-indol-4-yl)benzyl) methane sulfonamide]",5.41,< 5.00,10.4,–
"CS(=O)(=O)NCc1cc(F)cc(-c2cccc3[nH]c(-c4n[nH]c5ccc(-c6cncnc6)cc45)cc23)c1 [Compound 503, N-(3-Fluoro-5-(2-(5-(pyrimidin-5-yl)-1H-indazol-3-yl)-1H-indol-4-yl)benzyl) methanesulfonamide]",6.69,6.51,–,–
"CC(C)CC(=O)Nc1cncc(-c2ccc3[nH]nc(-c4cc5ncccc5[nH]4)c3c2)c1 [Compound 506, N-(5-(3-(1H-Pyrrolo[3,2-b]pyridin-2-yl)-1H-indazol-5-yl)pyridin-3-yl)-3-methylbutanamide]",7.07,< 5.00,24.2,–
"O=C(Nc1cncc(-c2ccc3[nH]nc(-c4cc5ncccc5[nH]4)c3c2)c1)c1ccccc1 [Compound 515, N-(5-(3-(1H-Pyrrolo[3,2-b]pyridin-2-yl)-1H-indazol-5-yl)pyridin-3-yl) benzamide]",6.04,< 5.00,0,–
"c1cnc2cc(-c3n[nH]c4ccc(-c5cncc(CN6CCCCC6)c5)cc34)[nH]c2c1 [Compound 519, 5-(5-(Piperidin-1-ylmethyl)pyridin-3-yl)-3-(1H-pyrrolo[3,2-b]pyridin-2-yl)-1H-indazole]",6.78,< 5.00,25.4,–
"O=C(Nc1cncc(-c2ccc3[nH]nc(-c4cc5ncccc5[nH]4)c3c2)c1)C1CCC1 [Compound 525, N-(5-(3-(1H-Pyrrolo[3,2-b]pyridin-2-yl)-1H-indazol-5-yl)pyridin-3-yl) cyclobutanecarboxamide]",6.96,< 5.00,29.4,–
"Fc1cccc(-c2cccc3[nH]c(-c4n[nH]c5ccc(C6CCNCC6)cc45)cc23)c1 [Compound 533, 3-(4-(3-Fluorophenyl)-1H-indol-2-yl)-5-(piperidin-4-yl)-1H-indazole]",5.42,< 5.00,0,–
"Fc1ccc(-c2cccc3[nH]c(-c4n[nH]c5ccc(C6=CCNCC6)cc45)cc23)cc1 [Compound 550, 3-(4-(4-Fluorophenyl)-1H-indol-2-yl)-5-(1,2,3,6-tetrahydropyridin-4-yl)-1H-indazole]",< 5.00,< 5.00,41.7,48
"Cc1ncc(-c2ccc3[nH]nc(-c4cc5c(-c6ccncc6)cccc5[nH]4)c3c2)n1C [Compound 601, 5-(1,2-Dimethyl-1H-imidazol-5-yl)-3-(4-(pyridin-4-yl)-1H-indol-2-yl)-1H-indazole]",< 5.00,5.38,–,32.4
"c1cc(N2CCCCC2)c2cc(-c3n[nH]c4ccc(-c5cncc(OC6CCCCC6)c5)cc34)[nH]c2c1 [Compound 635, 5-(5-(Cyclohexyloxy)pyridin-3-yl)-3-(4-(piperidin-1-yl)-1H-indol-2-yl)-1H-indazole]",5.53,5.62,–,–
"CN1CCN(c2cccc3[nH]c(-c4n[nH]c5ccc(-c6cncc(NC(=O)CC7CCNCC7)c6)cc45)cc23)CC1 [Compound 669, N-(5-(3-(4-(4-Methylpiperazin-1-yl)-1H-indol-2-yl)-1H-indazol-5-yl)pyridin-3-yl)-2-(piperidin-4-yl)acetamide]",< 5.00,< 5.00,17.7,11.7
"c1ccc2[nH]c(-c3n[nH]c4ccc(-c5cncc(OCCN6CCCC6)c5)cc34)cc2c1 [Compound 686, 3-(1H-Indol-2-yl)-5-(5-(2-(pyrrolidin-1-yl)ethoxy)pyridin-3-yl)-1H-indazole]",5.96,5.13,–,–
"c1cc(-c2ccoc2)c2cc(-c3n[nH]c4ccc(-c5cncc(OC6CCNCC6)c5)cc34)[nH]c2c1 [Compound 716, 3-(4-(Furan-3-yl)-1H-indol-2-yl)-5-(5-(piperidin-4-yloxy)pyridin-3-yl)-1H-indazole]",6.20,5.00,–,–
